Data as given in PubChem BioAssay (NCI).
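Five concentrations, 48 hours, 96-well plates. The concentration for full growth arrest is given as TGI.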

Tests used:
Assay in all cases: NCI-60 cell line screen, 48 h
786-0 renal = system: 786-0 renal
A498 renal = system: A498 renal
A549 NSCLC = system: A549 NSCLC
ACHN renal = system: ACHN renal
BT-549 breast = system: BT-549 breast
CAKI-1 renal = system: CAKI-1 renal
CCRF-CEM leukemia = system: CCRF-CEM leukemia
COLO 205 colon = system: COLO 205 colon
DU-145 prostate = system: DU-145 prostate
EKVX NSCLC = system: EKVX NSCLC
HCC-2998 colon = system: HCC-2998 colon
HCT-116 colon = system: HCT-116 colon
HCT-15 colon = system: HCT-15 colon
HL-60(TB) leukemia = system: HL-60(TB) leukemia
HOP-62 NSCLC = system: HOP-62 NSCLC
HOP-92 NSCLC = system: HOP-92 NSCLC
HS 578T breast = system: HS 578T breast
HT29 colon = system: HT29 colon
K-562 leukemia = system: K-562 leukemia
KM12 colon = system: KM12 colon
LOX IMVI melanoma = system: LOX IMVI melanoma
M14 melanoma = system: M14 melanoma
MALME-3M melanoma = system: MALME-3M melanoma
MCF7 breast = system: MCF7 breast
MDA-MB-231 breast = system: MDA-MB-231 breast
MDA-MB-435 = system: MDA-MB-435
MDA-N = system: MDA-N
MOLT-4 leukemia = system: MOLT-4 leukemia
NCI-H226 lung = system: NCI-H226 lung
NCI-H23 lung = system: NCI-H23 lung
NCI-H460 lung = system: NCI-H460 lung
NCI-H522 lung = system: NCI-H522 lung
NCI/ADR-RES ovarian = system: NCI/ADR-RES ovarian
OVCAR-3 ovarian = system: OVCAR-3 ovarian
OVCAR-4 ovarian = system: OVCAR-4 ovarian
OVCAR-5 ovarian = system: OVCAR-5 ovarian
OVCAR-8 ovarian = system: OVCAR-8 ovarian
RPMI-8226 leukemia = system: RPMI-8226 leukemia
RXF 393 renal = system: RXF 393 renal
SF-268 CNS = system: SF-268 CNS
SF-295 CNS = system: SF-295 CNS
SF-539 CNS = system: SF-539 CNS
SK-MEL-2 melanoma = system: SK-MEL-2 melanoma
SK-MEL-28 melanoma = system: SK-MEL-28 melanoma
SK-MEL-5 melanoma = system: SK-MEL-5 melanoma
SK-OV-3 ovarian = system: SK-OV-3 ovarian
SN12C renal = system: SN12C renal
SNB-19 CNS = system: SNB-19 CNS
SR leukemia = system: SR leukemia
SW-620 colon = system: SW-620 colon
T-47D breast = system: T-47D breast
TK-10 renal = system: TK-10 renal
U251 CNS = system: U251 CNS
UACC-257 melanoma = system: UACC-257 melanoma
UACC-62 melanoma = system: UACC-62 melanoma
UO-31 renal = system: UO-31 renal
IGROV1 ovarian = system: IGROV1 ovarian
PC-3 prostate = system: PC-3 prostate

`CC(C)(C)OC(=O)Nc1nnc(S(N)(=O)=O)s1` showed a TGI (786-0 renal) greater than 100 µM, a TGI (A498 renal) greater than 100 µM and a TGI (A549 NSCLC) greater than 100 µM. It also gave a TGI (ACHN renal) greater than 100 µM, a TGI (BT-549 breast) greater than 100 µM and a TGI (CAKI-1 renal) greater than 100 µM. For the same molecule, the TGI (CCRF-CEM leukemia) was greater than 100 µM, the TGI (COLO 205 colon) was greater than 100 µM and the TGI (DU-145 prostate) was greater than 100 µM. The TGI (EKVX NSCLC) was greater than 100 µM, the TGI (HCC-2998 colon) was greater than 100 µM and the TGI (HCT-116 colon) was greater than 100 µM. The TGI (HCT-15 colon) was greater than 100 µM, the TGI (HL-60(TB) leukemia) was greater than 100 µM and the TGI (HOP-62 NSCLC) was greater than 100 µM. For the same molecule, the TGI (HOP-92 NSCLC) was greater than 100 µM, the TGI (HS 578T breast) was greater than 100 µM and the TGI (HT29 colon) was greater than 100 µM. It also gave a TGI (K-562 leukemia) greater than 100 µM, a TGI (KM12 colon) greater than 100 µM and a TGI (LOX IMVI melanoma) greater than 100 µM. The TGI (M14 melanoma) was greater than 100 µM, the TGI (MALME-3M melanoma) was greater than 100 µM and the TGI (MCF7 breast) was greater than 100 µM. For the same molecule, the TGI (MDA-MB-231 breast) was greater than 100 µM, the TGI (MDA-MB-435) was greater than 100 µM and the TGI (MDA-N) was greater than 100 µM. For the same molecule, the TGI (MOLT-4 leukemia) was greater than 100 µM, the TGI (NCI-H226 lung) was greater than 100 µM and the TGI (NCI-H23 lung) was greater than 100 µM. It also gave a TGI (NCI-H460 lung) greater than 100 µM, a TGI (NCI-H522 lung) greater than 100 µM and a TGI (NCI/ADR-RES ovarian) greater than 100 µM. It also gave a TGI (OVCAR-3 ovarian) greater than 100 µM, a TGI (OVCAR-4 ovarian) greater than 100 µM and a TGI (OVCAR-5 ovarian) greater than 100 µM. The TGI (OVCAR-8 ovarian) was greater than 100 µM, the TGI (RPMI-8226 leukemia) was greater than 100 µM and the TGI (RXF 393 renal) was greater than 100 µM. For the same molecule, the TGI (SF-268 CNS) was greater than 100 µM, the TGI (SF-295 CNS) was greater than 100 µM and the TGI (SF-539 CNS) was greater than 100 µM. It also gave a TGI (SK-MEL-2 melanoma) greater than 100 µM, a TGI (SK-MEL-28 melanoma) greater than 100 µM and a TGI (SK-MEL-5 melanoma) greater than 100 µM. The TGI (SK-OV-3 ovarian) was greater than 100 µM, the TGI (SN12C renal) was greater than 100 µM and the TGI (SNB-19 CNS) was greater than 100 µM. For the same molecule, the TGI (SR leukemia) was greater than 100 µM, the TGI (SW-620 colon) was greater than 100 µM and the TGI (T-47D breast) was greater than 100 µM. For the same molecule, the TGI (TK-10 renal) was greater than 100 µM, the TGI (U251 CNS) was greater than 100 µM and the TGI (UACC-257 melanoma) was greater than 100 µM. The TGI (UACC-62 melanoma) was greater than 100 µM and the TGI (UO-31 renal) was greater than 100 µM.
`Brc1ccc(N=NN2CCCC2)cc1` gave a TGI (786-0 renal) greater than 100 µM, a TGI (A498 renal) greater than 100 µM and a TGI (A549 NSCLC) greater than 100 µM. The TGI (ACHN renal) was greater than 100 µM, the TGI (BT-549 breast) was greater than 100 µM and the TGI (CAKI-1 renal) was greater than 100 µM. For the same molecule, the TGI (CCRF-CEM leukemia) was greater than 100 µM, the TGI (COLO 205 colon) was greater than 100 µM and the TGI (DU-145 prostate) was greater than 100 µM. It also gave a TGI (EKVX NSCLC) greater than 100 µM, a TGI (HCC-2998 colon) greater than 100 µM and a TGI (HCT-116 colon) greater than 100 µM. The TGI (HCT-15 colon) was greater than 100 µM, the TGI (HL-60(TB) leukemia) was greater than 100 µM and the TGI (HOP-62 NSCLC) was greater than 100 µM. The TGI (HOP-92 NSCLC) was greater than 100 µM, the TGI (HS 578T breast) was greater than 100 µM and the TGI (HT29 colon) was greater than 100 µM. It also gave a TGI (IGROV1 ovarian) greater than 100 µM, a TGI (K-562 leukemia) greater than 100 µM and a TGI (KM12 colon) greater than 100 µM. It also gave a TGI (LOX IMVI melanoma) greater than 100 µM, a TGI (M14 melanoma) greater than 100 µM and a TGI (MALME-3M melanoma) greater than 100 µM. The TGI (MCF7 breast) was greater than 100 µM, the TGI (MDA-MB-231 breast) was greater than 100 µM and the TGI (MDA-MB-435) was greater than 100 µM. The TGI (MDA-N) was greater than 100 µM, the TGI (MOLT-4 leukemia) was greater than 100 µM and the TGI (NCI-H226 lung) was greater than 100 µM. The TGI (NCI-H23 lung) was greater than 100 µM, the TGI (NCI-H460 lung) was greater than 100 µM and the TGI (NCI-H522 lung) was greater than 100 µM. For the same molecule, the TGI (OVCAR-3 ovarian) was greater than 100 µM, the TGI (OVCAR-4 ovarian) was greater than 100 µM and the TGI (OVCAR-5 ovarian) was greater than 100 µM. For the same molecule, the TGI (PC-3 prostate) was greater than 100 µM, the TGI (RPMI-8226 leukemia) was greater than 100 µM and the TGI (RXF 393 renal) was greater than 100 µM. The TGI (SF-268 CNS) was greater than 100 µM, the TGI (SF-295 CNS) was greater than 100 µM and the TGI (SF-539 CNS) was greater than 100 µM. It also gave a TGI (SK-MEL-2 melanoma) greater than 100 µM, a TGI (SK-MEL-28 melanoma) greater than 100 µM and a TGI (SK-MEL-5 melanoma) greater than 100 µM. It also gave a TGI (SK-OV-3 ovarian) greater than 100 µM, a TGI (SN12C renal) greater than 100 µM and a TGI (SNB-19 CNS) greater than 100 µM. For the same molecule, the TGI (SR leukemia) was greater than 100 µM, the TGI (SW-620 colon) was greater than 100 µM and the TGI (T-47D breast) was 97.3 µM. The TGI (TK-10 renal) was greater than 100 µM, the TGI (U251 CNS) was greater than 100 µM and the TGI (UACC-257 melanoma) was greater than 100 µM. It also gave a TGI (UACC-62 melanoma) greater than 100 µM and a TGI (UO-31 renal) greater than 100 µM.
